The values that follow come from patent US6028201A, “Inhibitors of farnesyl-protein transferase” (Merck & Co., Inc., priority 1998, dated 2000).

As a reminder, the IC50 is the concentration that gives 50% inhibition.

The target in the test is T1, human FPTase (Homo sapiens, UniProt P49354+P49356).
T1 construct: made in house
Description: In vitro inhibition of human FPTase. The settings on record: 100 nM Ras-CVIM substrate, [3H]-FPP, 30 min; read-out: IC50 against human FPTase. It counts as biochemical.

The structures appear in SMILES notation. Where a name gives a salt, the structure may show the parent alone.

On to `CCCCCN(Cc1cncn1Cc1ccc(C#N)cc1)C(=O)N(C)c1cccc(Cl)c1` [Example 2, N-(3-chlorophenyl)-N-methyl-N'-[1-(4-cyanobenzyl)-5-imidazolylmethyl]-N'-(n-pentyl)urea hydrochloride], for which the IC50 was less than 10 µM.

`CCCCCN(Cc1cncn1Cc1ccc(C#N)cc1)C(=O)Nc1cccc(Cl)c1` [Example 1, N-(3-chlorophenyl)-N'-[1-(4-cyanobenzyl)-5-imidazolylmethyl]-N'-(n-pentyl)urea hydrochloride]: the IC50 is less than 10 µM.
